Laboratory results from publication PMC7600710, “The Inhibition of Serine/Threonine Protein Phosphatase Type 5 Mediates Cantharidin Toxicity to Control Periplaneta americana (L.)” (Insects, 2020).

T1: serine/threonine protein phosphatase type 5 (PaPP5), catalytic domain PaPP5c (Periplaneta americana, UniProt A0A3Q9NNI4)
T1 construct: gene PP5; catalytic domain of PP5 (167-489 amino acids, PP5c), His-tagged, expressed in E. coli; full-length GenBank AZT88974.1
T1 sequence (A0A3Q9NNI4 167-489): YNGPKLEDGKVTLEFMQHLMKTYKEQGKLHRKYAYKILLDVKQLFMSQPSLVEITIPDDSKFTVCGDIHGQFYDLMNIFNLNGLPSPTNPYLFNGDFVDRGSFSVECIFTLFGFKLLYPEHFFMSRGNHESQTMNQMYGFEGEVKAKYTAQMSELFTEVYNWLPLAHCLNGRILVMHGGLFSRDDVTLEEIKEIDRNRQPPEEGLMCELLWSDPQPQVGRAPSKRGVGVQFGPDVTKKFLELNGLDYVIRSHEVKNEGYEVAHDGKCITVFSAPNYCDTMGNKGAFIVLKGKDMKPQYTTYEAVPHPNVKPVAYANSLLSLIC

B1: serine/threonine protein phosphatase type 5 (PaPP5), catalytic domain PaPP5c (Periplaneta americana) (protein)
chain: T1 sequence (A0A3Q9NNI4 167-489)

How the values were obtained:
[1] = target: T1, serine/threonine protein phosphatase type 5 (PaPP5), catalytic domain PaPP5c; assay: DiFMUP fluorescence phosphatase inhibition assay on purified recombinant PaPP5c; assay type: biochemical
purified protein = substrate: Cc1cc(=O)oc2c(F)c(OP(=O)(O)O)c(F)cc12; assay: purified protein; details: Mn2+ (MnCl2 in expression, dialysis and assay buffer)

| Molecule | IC50 [1] [nM] | Km (purified protein) [µM] |
| --- | --- | --- |
| C[C@@]12C(=O)OC(=O)[C@]1(C)[C@H]1CC[C@@H]2O1 [Cantharidin] | 390 ± 40 | – |
| O=C1OC(=O)[C@H]2[C@@H]1[C@@H]1CC[C@H]2O1 [Norcantharidin] | 1870 ± 230 | – |
| B1 | – | 144.10 ± 9.730 |
